# Counter-ions that a name gives are not always drawn.
# Key:
# [1] = system: recurrent or advanced endometrial, ovarian, and cervical cancer; assay: Phase 1 efficacy of AL3818 with standard platinum-based chemotherapy (best response); assay type: in vivo, human; parameters: key to Best response: stable disease (SD); partial response (PR); complete response (CR)
# Source text: Patients in this trial were females with recurrent or advanced endometrial, ovarian, and cervical cancer.
# In this described study, all patients received at least one dose of AL3818 dihydrochloride orally. Aside of three patients were permanent discharged from this study due to severe adverse events (SAE), the other six patients' best response ranged from stable disease (SD) (⅙, 16.7%), partial response (PR) ( 4/6, 66.6%) to complete response (CR) (⅙, 16.7%).
# 1. The daily dosage of compound AL3818 was the initial dosage that administrated to the patients, which might subject to a dosage reduction if serious side-effects were observed.
# 2. The best response represented the most favorable outcome during the entire treatment, regardless of the possible disease progression (PD) after that.
# endometrial cancer = assay: Phase 2a efficacy of AL3818 with standard platinum-based chemotherapy, endometrial cancer patients; assay type: in vivo, human; parameters: key to Best response: stable disease (SD); partial response (PR); complete response (CR)
# Method: (§1) Phase 1 was completed in Q1 2017 at one study site to determine the recommend phase 2 dose (RP2D). The RP2D was determined to be AL3818 dihydrochloride 8 mg orally once daily in 21-day cycles (14 days on treatment, 7 days off treatment) on Day 8 to Day 21 of the cycle with platinum-based chemotherapy on Day 1 of the cycle.
# (§2) Phase 2a is currently ongoing at four study sites in the U.S. The first subject was enrolled in April 2017. As of December 2018, 48 subjects with recurrent or metastatic endometrial, ovarian, and cervical cancer have been enrolled. 24 subjects are still on treatment and 24 subjects have discontinued treatment. 21 endometrial cancer subjects have been enrolled, 9 subjects have discontinued treatment. 8 subjects discontinued due to disease progression, 1 subject discontinued due to toxicity. 12 subjects remain on treatment.
# Combining Phase 1 and Phase 2a subjects, 24 subjects with endometrial cancer have been enrolled in study AL3818-US-002. 19 subjects have had evaluable responses as of December 2018. There were eight subjects enrolled in Phase 2a of the study as first-line treatment.
# ovarian cancer = assay: Phase 2a efficacy of AL3818 with standard platinum-based chemotherapy, ovarian cancer patients; assay type: in vivo, human; parameters: key: stable disease (SD); partial response (PR); complete response (CR); details: single ovarian cancer subjects, 8 mg daily + chemotherapy, December 2018, PtR = platinum resistant
# Method: as §1, §2
# [2] = Phase 2a chemo combination trial: TEAEs and toxicity; assay type: in vivo, human
# Method: as §1, §2
# [3] = Phase 1 chemo combination dosing de-escalation trial: safety, tolerability, DLT events
# Source text: A Phase 1 trial was designed to determine the recommended phase 2 dose (RP2D) for part 2 (phase 2a) of the study.
# In this presented chemo combination therapy regimen, in the first day of the 21-day cycle, standard platinum-based chemotherapeutic agents were administrated intravenously to the patients. […] 1-6 cycles of chemotherapy were applied for each individual patient.
# After the intravenous (IV) chemotherapy on the Day 1, Day 2 to Day 7 was the therapy free period.
# From Day 22 (C2D1) (CXDY is the abbreviation for Cycle X Day Y. For example, C2D1 represents Cycle 2 Day 1), a new cycle began, paclitaxel and carboplatin (or cisplatin for cervical cancer) were administrated to the patients and Day 23 to Day 28 (C2D2 • C2D7) was the therapy free period again.
# The first 21-day cycle plus 7 days (C1D1-C2D8 or Day 1 to Day28) was crucial in this regimen and it was called the primary safety evaluation period. The recommended phase 2 dose (RP2D) was obtained by evaluating according to the standard for the dose limiting toxicity (DLT) events of patients in this period of time.
# This evaluation period could be extended to the end of second cycle for the patients who passed the primary safety evaluation period.
# In this embodiment, if any serious dose limiting toxicity (DLT) events or other serious side effects occurred, according to the serious level, the patients might require to withdraw the treatment, reduce the dose of medication or switch to other medications.
# [4] = AL3818 combination therapy with Nivolumab Phase I trial (DLT); assay type: in vivo, human; details: 10 mg oral Day 1-14 + Nivolumab 240 mg infusion Day 1 and Day 15 per 28 days; six sarcoma subjects
# Source text: AL3818 and Nivolumab administrations are both started on Day 1.
# Nivolumab is administrated via infusion on Day 1 and Day 15 for twice per 28 days, 21 days as one cycle will still be applied for the combination therapy. Nivolumab can be administrated via infusion on Day 1 once per 28 days, 21 days as one cycle will still be applied for the combination therapy. AL3818 is administrated orally from Day 1 to Day 14 and off from Day 15 to Day 21 for 21 days as one cycle. Nivolumab is administrated via infusion on Day 1 and Day 15 for twice per 28 days starting dose at 240 mg twice per 28 days. Nivolumab can be optionally administrated via infusion on Day 1 once per 28 days at 480 mg. AL3818 is administrated orally at Day 1-Day 14 at starting dose of 12 mg.
# Treatments of subject 001 (liposarcoma), 002 (synovial sarcoma), 003 (angiosarcoma), 004 (leiomyosarcoma), 005 (undifferentiated pleomorphic sarcoma) and 006 (leiomyosarcoma) at 10 mg oral dosing Day 1-14 combing with Nivolumab at Day 1 and Day 15 for twice per 28 days starting dose at 240 mg infusion have been completed with one DLT (subject 002). Dose escalation to 12 mg combination therapies with Nivolumab with cervical cancer subject and other sarcoma subjects are ongoing.
# VEGFR1 = VEGFR1 (Homo sapiens, UniProt P17948); details: cited from earlier work
# VEGFR2/KDR = VEGFR2/KDR (Homo sapiens, UniProt P35968); details: cited from earlier work
# VEGFR3 = VEGFR3 (Homo sapiens, UniProt P35916); details: cited from earlier work
# FGFR1 = FGFR1 (Homo sapiens, UniProt P11362); details: cited from earlier work
# Chain of FGFR1 (P11362 22-822): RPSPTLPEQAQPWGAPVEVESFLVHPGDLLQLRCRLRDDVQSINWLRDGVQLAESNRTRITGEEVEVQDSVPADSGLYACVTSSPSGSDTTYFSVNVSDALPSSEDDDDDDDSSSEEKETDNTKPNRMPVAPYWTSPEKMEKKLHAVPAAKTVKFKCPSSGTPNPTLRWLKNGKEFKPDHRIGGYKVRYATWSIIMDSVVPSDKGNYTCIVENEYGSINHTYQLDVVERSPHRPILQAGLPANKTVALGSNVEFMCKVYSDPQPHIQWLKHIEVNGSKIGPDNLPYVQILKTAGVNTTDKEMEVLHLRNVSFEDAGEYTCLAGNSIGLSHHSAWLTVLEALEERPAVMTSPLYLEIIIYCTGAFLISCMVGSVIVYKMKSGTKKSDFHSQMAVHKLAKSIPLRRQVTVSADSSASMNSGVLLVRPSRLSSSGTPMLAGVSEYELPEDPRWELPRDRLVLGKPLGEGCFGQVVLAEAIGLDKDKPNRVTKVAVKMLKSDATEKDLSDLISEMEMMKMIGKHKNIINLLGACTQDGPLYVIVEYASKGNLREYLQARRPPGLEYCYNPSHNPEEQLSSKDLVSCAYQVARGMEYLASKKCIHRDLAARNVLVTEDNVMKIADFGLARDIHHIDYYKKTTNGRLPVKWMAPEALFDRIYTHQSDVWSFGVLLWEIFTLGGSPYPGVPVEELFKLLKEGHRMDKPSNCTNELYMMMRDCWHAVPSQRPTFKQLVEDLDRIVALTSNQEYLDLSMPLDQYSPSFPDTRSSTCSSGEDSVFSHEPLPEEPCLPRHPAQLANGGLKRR
# FGFR2 = FGFR2 (Homo sapiens, UniProt P21802); details: cited from earlier work
# Chain of FGFR2 (P21802 22-821): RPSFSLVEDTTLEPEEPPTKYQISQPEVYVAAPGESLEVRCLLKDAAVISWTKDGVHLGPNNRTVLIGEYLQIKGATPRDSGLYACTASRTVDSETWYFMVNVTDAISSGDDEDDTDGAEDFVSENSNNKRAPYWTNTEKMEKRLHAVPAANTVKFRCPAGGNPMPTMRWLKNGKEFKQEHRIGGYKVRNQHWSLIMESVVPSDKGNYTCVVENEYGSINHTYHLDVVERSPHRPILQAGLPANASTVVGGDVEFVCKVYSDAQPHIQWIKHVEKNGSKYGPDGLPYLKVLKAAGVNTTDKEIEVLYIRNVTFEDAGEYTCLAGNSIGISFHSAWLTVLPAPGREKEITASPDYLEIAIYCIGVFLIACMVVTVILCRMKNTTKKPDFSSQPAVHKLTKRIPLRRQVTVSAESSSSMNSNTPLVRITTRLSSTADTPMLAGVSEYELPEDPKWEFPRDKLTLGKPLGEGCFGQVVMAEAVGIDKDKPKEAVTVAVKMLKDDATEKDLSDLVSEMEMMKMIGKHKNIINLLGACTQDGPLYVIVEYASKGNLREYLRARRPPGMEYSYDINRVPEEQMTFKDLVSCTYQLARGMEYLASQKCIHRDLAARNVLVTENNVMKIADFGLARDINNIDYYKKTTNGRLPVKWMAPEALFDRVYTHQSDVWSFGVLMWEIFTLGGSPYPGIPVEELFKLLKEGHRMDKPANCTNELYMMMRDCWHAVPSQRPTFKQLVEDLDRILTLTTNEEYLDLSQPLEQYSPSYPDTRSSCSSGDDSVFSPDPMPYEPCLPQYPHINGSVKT
# FGFR3 = FGFR3 (Homo sapiens, UniProt P22607); details: cited from earlier work
# Chain of FGFR3 (P22607 23-806): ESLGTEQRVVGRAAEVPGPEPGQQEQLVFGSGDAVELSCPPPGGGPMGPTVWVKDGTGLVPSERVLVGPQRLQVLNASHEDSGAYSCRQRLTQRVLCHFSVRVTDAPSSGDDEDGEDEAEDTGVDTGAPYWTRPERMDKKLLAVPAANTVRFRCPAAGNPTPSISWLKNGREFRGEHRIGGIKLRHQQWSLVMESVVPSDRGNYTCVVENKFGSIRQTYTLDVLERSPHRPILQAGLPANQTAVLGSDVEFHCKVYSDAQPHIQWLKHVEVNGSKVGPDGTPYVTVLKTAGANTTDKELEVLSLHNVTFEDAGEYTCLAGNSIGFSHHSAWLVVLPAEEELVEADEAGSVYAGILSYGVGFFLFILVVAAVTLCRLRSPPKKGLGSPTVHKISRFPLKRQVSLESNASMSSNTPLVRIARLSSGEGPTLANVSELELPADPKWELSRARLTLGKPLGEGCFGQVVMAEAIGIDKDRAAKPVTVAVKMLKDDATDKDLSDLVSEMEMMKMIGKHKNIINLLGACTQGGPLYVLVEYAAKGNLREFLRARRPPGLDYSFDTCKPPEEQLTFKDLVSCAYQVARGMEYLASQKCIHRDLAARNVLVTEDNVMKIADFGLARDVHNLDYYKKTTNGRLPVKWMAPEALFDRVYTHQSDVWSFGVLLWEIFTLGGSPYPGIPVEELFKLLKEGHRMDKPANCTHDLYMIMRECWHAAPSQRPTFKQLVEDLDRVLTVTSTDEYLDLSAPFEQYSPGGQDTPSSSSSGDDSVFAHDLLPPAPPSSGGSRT
# PDGFR-a = PDGFR-a (Homo sapiens, UniProt P16234); details: cited from earlier work
# Chain of PDGFR-a (P16234 24-1089): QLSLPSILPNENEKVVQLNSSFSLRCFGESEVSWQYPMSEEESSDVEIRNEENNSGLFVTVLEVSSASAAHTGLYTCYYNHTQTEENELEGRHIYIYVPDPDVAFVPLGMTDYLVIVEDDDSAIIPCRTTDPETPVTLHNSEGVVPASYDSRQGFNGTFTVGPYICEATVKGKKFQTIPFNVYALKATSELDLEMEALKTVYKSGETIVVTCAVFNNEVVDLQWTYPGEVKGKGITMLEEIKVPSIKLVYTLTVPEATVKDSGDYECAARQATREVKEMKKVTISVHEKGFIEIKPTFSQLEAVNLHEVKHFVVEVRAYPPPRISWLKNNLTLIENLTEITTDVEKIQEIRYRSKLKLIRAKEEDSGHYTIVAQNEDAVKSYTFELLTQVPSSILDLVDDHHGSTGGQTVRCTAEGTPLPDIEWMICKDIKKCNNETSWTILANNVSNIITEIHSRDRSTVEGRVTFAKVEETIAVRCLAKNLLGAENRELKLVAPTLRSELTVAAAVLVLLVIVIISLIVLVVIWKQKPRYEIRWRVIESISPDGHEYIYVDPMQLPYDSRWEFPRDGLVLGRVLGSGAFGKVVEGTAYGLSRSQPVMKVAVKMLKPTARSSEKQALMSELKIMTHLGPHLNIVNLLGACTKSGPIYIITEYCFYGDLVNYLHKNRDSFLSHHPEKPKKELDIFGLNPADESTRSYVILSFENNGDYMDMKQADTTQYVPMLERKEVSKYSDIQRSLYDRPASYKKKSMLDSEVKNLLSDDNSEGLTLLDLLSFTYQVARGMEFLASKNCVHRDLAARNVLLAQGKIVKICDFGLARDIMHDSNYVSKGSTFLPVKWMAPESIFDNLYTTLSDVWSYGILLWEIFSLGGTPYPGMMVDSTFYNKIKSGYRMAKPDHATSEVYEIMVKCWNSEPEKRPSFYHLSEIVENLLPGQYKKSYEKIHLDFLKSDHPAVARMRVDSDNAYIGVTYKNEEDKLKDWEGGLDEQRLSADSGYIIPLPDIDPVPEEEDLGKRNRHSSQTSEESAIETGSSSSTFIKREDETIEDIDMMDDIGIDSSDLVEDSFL
# c-KIT = c-KIT (Homo sapiens, UniProt P10721); details: cited from earlier work
# Chain of c-KIT (P10721 26-976): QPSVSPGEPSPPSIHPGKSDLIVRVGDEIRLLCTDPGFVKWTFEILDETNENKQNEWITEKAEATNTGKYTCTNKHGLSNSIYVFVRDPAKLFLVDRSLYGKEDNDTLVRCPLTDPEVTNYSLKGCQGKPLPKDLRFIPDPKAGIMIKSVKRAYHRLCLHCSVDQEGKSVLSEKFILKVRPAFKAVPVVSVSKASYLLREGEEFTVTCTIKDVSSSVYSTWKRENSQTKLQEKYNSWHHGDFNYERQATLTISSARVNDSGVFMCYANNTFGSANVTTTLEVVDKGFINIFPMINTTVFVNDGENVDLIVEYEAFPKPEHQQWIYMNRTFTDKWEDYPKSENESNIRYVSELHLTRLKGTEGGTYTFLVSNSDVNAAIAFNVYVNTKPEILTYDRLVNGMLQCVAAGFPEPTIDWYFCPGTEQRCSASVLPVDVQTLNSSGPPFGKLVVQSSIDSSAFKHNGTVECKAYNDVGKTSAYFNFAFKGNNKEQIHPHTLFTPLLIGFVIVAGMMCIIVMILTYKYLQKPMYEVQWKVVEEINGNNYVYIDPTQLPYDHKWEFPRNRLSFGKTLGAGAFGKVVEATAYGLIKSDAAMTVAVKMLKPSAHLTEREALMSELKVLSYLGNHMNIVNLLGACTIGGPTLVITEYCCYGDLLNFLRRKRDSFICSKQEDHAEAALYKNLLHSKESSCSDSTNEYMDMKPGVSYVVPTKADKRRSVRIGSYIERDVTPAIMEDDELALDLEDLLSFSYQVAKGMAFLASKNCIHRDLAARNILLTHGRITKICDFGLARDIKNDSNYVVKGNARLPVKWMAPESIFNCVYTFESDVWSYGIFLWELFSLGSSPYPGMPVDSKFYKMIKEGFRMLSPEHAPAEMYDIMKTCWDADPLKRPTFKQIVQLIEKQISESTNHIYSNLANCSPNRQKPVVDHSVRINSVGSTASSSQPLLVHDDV
# tumor = details: mouse model, disclosed in earlier filing; cited from earlier work
# [5] = single subject, ovarian cancer, daily dosage 8 mg + standard paclitaxel and carboplatin
# [6] = single subjects, endometrial cancer, daily dosage 8 mg + standard paclitaxel and carboplatin
# [7] = single subjects, ovarian cancer, initial daily dosage 12 mg + standard platinum-based chemotherapy
# [8] = 21 endometrial cancer subjects enrolled in Phase 2a, December 2018
# [9] = endometrial cancer, second- and further-line treatment, eleven subjects
smiles,measurement,setting,value
COc1cc2c(Oc3ccc4[nH]c(C)cc4c3F)ccnc2cc1OCC1(N)CC1 [AL3818 dihydrochloride],share of patients with best response complete response (CR),"[1]; Phase 1, six evaluable patients (1/6)",16.7%
same,share of patients with best response partial response (PR),"[1]; Phase 1, six evaluable patients (4/6)",66.6%
same,Best response,[1]; [5],SD
same,Best response,[1]; [6],PR
same,Best response,[1]; [7],PR
same,subjects discontinued due to disease progression,endometrial cancer; [8],8 subjects
same,partial responses (PR) as best responses,"endometrial cancer; endometrial cancer, first-line treatment, eight subjects",five partial responses
same,Objective response rate (ORR),"endometrial cancer; endometrial cancer, first-line treatment, eight subjects Phase 2a (5/8)",62.5%
same,disease control rate (DCR),"endometrial cancer; endometrial cancer, first-line treatment, eight subjects Phase 2a (6/8)",75%
same,complete response (CR) as best responses,endometrial cancer; [9],one complete response
same,partial responses (PR) as best responses,endometrial cancer; [9],five partial responses
same,disease control rate (DCR),"endometrial cancer; endometrial cancer, second- and further-line treatment, eleven subjects (9/11)",82%
same,Objective response rate (ORR),"endometrial cancer; endometrial cancer, second- and further-line treatment, eleven subjects Phase 1 and 2a (6/11)",54.5%
same,Best response,"endometrial cancer; single endometrial cancer subjects, Phase 2a, 8 mg daily + paclitaxel/carboplatin, December 2018",CR and PR and SD
same,Best Response (% reduction),ovarian cancer,SD
same,subjects discontinued due to toxicity,[2]; [8],1 subject
same,TEAE abdominal pain,"[2]; Phase 2a, % of all TEAEs",4.20%
same,TEAE alopecia,"[2]; Phase 2a, % of all TEAEs",1.3%
same,TEAE anaemia,"[2]; Phase 2a, % of all TEAEs",1.8%
same,TEAE arthralgia,"[2]; Phase 2a, % of all TEAEs",1.6%
same,TEAE asthenia,"[2]; Phase 2a, % of all TEAEs",2.2%
same,TEAE back pain,"[2]; Phase 2a, % of all TEAEs",1.5%
same,TEAE constipation,"[2]; Phase 2a, % of all TEAEs",2.7%
same,TEAE decreased appetite,"[2]; Phase 2a, % of all TEAEs",2.7%
same,TEAE diarrhea,"[2]; Phase 2a, % of all TEAEs",6.3%
same,TEAE dyspnea,"[2]; Phase 2a, % of all TEAEs",1%
same,TEAE epistaxis,"[2]; Phase 2a, % of all TEAEs",3%
same,TEAE fatigue,"[2]; Phase 2a, % of all TEAEs",4.5%
same,TEAE flatulence,"[2]; Phase 2a, % of all TEAEs",1.5%
same,TEAE headache,"[2]; Phase 2a, % of all TEAEs",3.2%
same,TEAE hypertension,"[2]; Phase 2a, % of all TEAEs",3.3%
same,TEAE hypokalemia,"[2]; Phase 2a, % of all TEAEs",1.3%
same,TEAE hypomagnesaemia,"[2]; Phase 2a, % of all TEAEs",1%
same,TEAE insomnia,"[2]; Phase 2a, % of all TEAEs",1.3%
same,TEAE nausea,"[2]; Phase 2a, % of all TEAEs",4.7%
same,TEAE neuropathy peripheral,"[2]; Phase 2a, % of all TEAEs",2%
same,TEAE neutropenia,"[2]; Phase 2a, % of all TEAEs",2%
same,TEAE neutrophil count decreased,"[2]; Phase 2a, % of all TEAEs",1%
same,TEAE pain in extremity,"[2]; Phase 2a, % of all TEAEs",1.7%
same,TEAE pyrexia,"[2]; Phase 2a, % of all TEAEs",1.2%
same,TEAE thrombocytopenia,"[2]; Phase 2a, % of all TEAEs",1.7%
same,TEAE urinary tract infection,"[2]; Phase 2a, % of all TEAEs",1.3%
same,TEAE vomiting,"[2]; Phase 2a, % of all TEAEs",2.8%
same,TEAE weight decreased,"[2]; Phase 2a, % of all TEAEs",1%
same,dose limiting toxicity (DLT) events,"[3]; 10 mg daily group, three patients, oral Day 8-21 of 21-day cycle + paclitaxel/carboplatin Day 1",one of the patients
same,dose limiting toxicity (DLT) events during the primary safety evaluation period,"[3]; 12 mg daily group, three patients, oral Day 8-21 of 21-day cycle + paclitaxel/carboplatin Day 1",two of the patients out of three
same,safe daily dosage,"[3]; 21-day cycle (14 days on, 7 off) combined with paclitaxel and carboplatin (or cisplatin)",8 mg
same,recommended phase 2 dose (RP2D),[3]; oral once daily Day 8-21 of 21-day cycle with platinum-based chemotherapy Day 1,8 mg
"COc1cc2c(Oc3ccc4[nH]c(C)cc4c3F)ccnc2cc1OCC1(N)CC1 [AL3818, (1-[[4-(4-fluoro-2-methyl-1H-indol-5-yloxy)-6-methoxyquinolin-7-yl]oxy]methyl]cyclopropaneamine]",Best response,"[1]; single subject, cervical cancer, initial daily dosage 12 mg + standard platinum-based chemotherapy",NE/SAE
same,Best response,"[1]; single subject, endometrial cancer, initial daily dosage 10 mg + standard platinum-based chemotherapy",PR
same,Best response,[1]; [5],SD
same,Best response,[1]; [6],PR
same,Best response,"[1]; single subjects, ovarian cancer, initial daily dosage 10 mg + standard platinum-based chemotherapy",CR and NE/SAE
same,Best response,[1]; [7],NE/SAE and PR
same,DLT,[4],one DLT
same,inhibition of VEGFR1 activity,VEGFR1,could inhibit
same,inhibition of VEGFR2/KDR activity,VEGFR2/KDR,could inhibit
same,inhibition of VEGFR3 activity,VEGFR3,could inhibit
same,inhibition of FGFR1,FGFR1,strong inhibitor
same,inhibition of FGFR2,FGFR2,strong inhibitor
same,inhibition of FGFR3,FGFR3,strong inhibitor
same,inhibition of PDGFR-a,PDGFR-a,strong inhibitor
same,inhibition of c-KIT,c-KIT,strong inhibitor
same,anti-tumor effect of combination with chemotherapy agents,tumor,synergistic anti-tumor effects
same,dose limiting toxicity (DLT) events,"[3]; 8 mg daily group, three patients, oral Day 8-21 of 21-day cycle + paclitaxel/carboplatin Day 1",no patient
same,tolerability of daily dosage of 12 mg,[3]; 12 mg daily together with platinum-based chemotherapy,too high
same,TEAE abdominal pain,"[3]; Phase 1, nine subjects",2.88%
same,TEAE alopecia,"[3]; Phase 1, nine subjects",2.91%
same,TEAE chest pain,"[3]; Phase 1, nine subjects",1.92%
same,TEAE dehydration,"[3]; Phase 1, nine subjects",1.92%
same,TEAE diarrhea,"[3]; Phase 1, nine subjects",4.81%
same,TEAE dizziness,"[3]; Phase 1, nine subjects",2.88%
same,TEAE fatigue,"[3]; Phase 1, nine subjects",4.81%
same,TEAE hypertension,"[3]; Phase 1, nine subjects",2.88%
same,TEAE nausea,"[3]; Phase 1, nine subjects",9.62%
same,TEAE pulmonary embolism,"[3]; Phase 1, nine subjects",1.92%
same,TEAE sore throat,"[3]; Phase 1, nine subjects",1.92%
same,TEAE thrombocytopenia,"[3]; Phase 1, nine subjects",1.94%
same,TEAE urinary tract infection,"[3]; Phase 1, nine subjects",2.88%
same,TEAE vomiting,"[3]; Phase 1, nine subjects",5.77%
same,TEAE weakness generalized,"[3]; Phase 1, nine subjects",2.88%
same,subjects reporting treatment emergent adverse events (TEAE),"[3]; Phase 1, nine subjects (9/9)",100%

# Reference: patent publication US20250345321A1, “CATEQUENTINIB (ANLOTINIB) IN SEQUENTIAL COMBINATION WITH IMMUNOTHERAPY FOR USE IN THE TREATMENT OF CANCER” (ADVENCHEN PHARMACEUTICALS, LLC, priority 2019, published 2025)
